Laboratory results taken from patent US6395738B1, “Benzofuran derivatives” (Kyowa Hakko Kogyo Co., Ltd., priority 1997, dated 2002).
In brackets after ≈: the same amount, converted by molar mass. Where two headings read alike, the source gives them in different places.

Experiments:
Male Sunkus murinus = test: Vomiting test on male Sunkus; type: in vivo; settings: Dose (mg) 10; intraperitoneal; observed for 1 hour
Protocol: Vomiting Test on Male Sunkus
Male Sunkus murinus weighing about 60 g, 5 to 15 animals/group, were used in the test According to the method of Matsuki et al. (Japan J. Pharmacol., 48, 303 (1988)), each Sunkus animal was isolated and left in a wire-netting cage (15 cm width×21 cm length×15 cm height). Each test compound was suspended in physiological saline containing 0.5% Tween 80 and then intraperitoneally (i.p.) administered into each animal in a dose of 10 μl/g. […] The results were expressed in the number of animals with vomiting/the number of tested animals in the group given the test compound.
Compounds P and Q were used as the comparative compounds.

[1] = biological target: T1, Recombinant Human PDE IV Enzyme (HSPDE4A) (Homo sapiens, UniProt P27815); test: Inhibition test on recombinant human PDE IV enzyme; type: biochemical; settings: [3H]cAMP substrate
T1 construct: except that 223 amino acids have been deleted from the N-terminal thereof; made in house; host or cells: E. coli
Protocol: Inhibition Test on Recombinant Human PDE IV Enzyme
Human phosphodiesterase cDNA (HSPDE4A) was isolated from testicles. Its predicted amino acid sequence is identical with the sequence (HSPDE4A5) reported by Bolger, G. et al. (Mol. Cell. Biol., 6558 (1993)) except that 223 amino acids have been deleted from the N-terminal thereof. This recombinant protein was expressed by an E. coli expression plasmid and then purified. The PDE activity was measured in the following 2-step process according to the method of Kincaid, R. and Manganiello, V. [Method. Enzymol., 159, 457 (1988)]. The substrate used was [^3H]cAMP (final concentration: […]), and the reaction was performed in a standard mixture containing N,N-bis(2-hydroxyethyl)-2-aminoethanesulfonic acid (50 mmol/l, pH 7.2), MgCl2 (1 mmol/l) and soybean trypsin inhibitor (0.1 mg/ml). The reaction was initiated by adding the enzyme thereto, and the mixture was incubated at 30° C. for 10 to 30 minutes. The reaction was quenched by hydrochloric acid, and the formed 5′-AMP was completely decomposed with […]. This sample was subjected to chromatography on DEAE-Sephadex A-25, and the eluted [^3H]adenosine was counted with a scintillation counter. The test compound was added after dissolved (concentration: 1.7%) in DMSO.

TNF α = test: Inhibitory activity on production of TNF α in mouse model with LPS-induced sepsis; type: in vivo, BALB/c male mice; settings: for Ratio of inhibition (%) of TNF α production: Dose (mg) 30, orally administered 90 minutes before LPS i.v., serum TNF α by ELISA 1 hour after LPS
Water solubility = type: physicochemical
Protocol: Further, Compound (I) has an amide structure containing a piperazine ring at the 2-position of the benzofuran skeleton and can be converted into a pharmaceutically acceptable acid addition salt. […] For example, Compound 1 upon conversion into monohydrochloride becomes dissolved in water at a ratio of 7.4 μg/ml.

[2] = concentration of test compound 10^−7 mol/L
[3] = concentration of test compound 10^−8 mol/L

T1 sequence (P27815 224-886 limits assumed): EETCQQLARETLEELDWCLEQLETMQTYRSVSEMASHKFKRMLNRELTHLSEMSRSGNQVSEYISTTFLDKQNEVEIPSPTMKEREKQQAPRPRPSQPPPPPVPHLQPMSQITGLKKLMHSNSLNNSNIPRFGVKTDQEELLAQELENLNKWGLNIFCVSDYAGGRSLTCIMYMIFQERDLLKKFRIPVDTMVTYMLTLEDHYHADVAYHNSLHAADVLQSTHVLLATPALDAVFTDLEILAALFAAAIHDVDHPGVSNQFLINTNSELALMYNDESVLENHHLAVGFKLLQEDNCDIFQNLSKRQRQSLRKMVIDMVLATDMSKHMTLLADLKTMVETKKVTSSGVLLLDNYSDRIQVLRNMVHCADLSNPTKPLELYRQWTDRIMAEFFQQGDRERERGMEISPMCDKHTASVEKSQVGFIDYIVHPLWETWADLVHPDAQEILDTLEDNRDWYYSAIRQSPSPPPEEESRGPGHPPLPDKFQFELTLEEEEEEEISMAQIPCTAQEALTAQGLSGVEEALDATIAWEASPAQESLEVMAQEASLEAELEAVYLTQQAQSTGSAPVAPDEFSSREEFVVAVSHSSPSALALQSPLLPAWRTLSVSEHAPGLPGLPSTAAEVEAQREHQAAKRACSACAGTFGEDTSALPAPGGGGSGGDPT

Row | SMILES | Number of animals with vomiting/Number of tested animals (Male Sunkus murinus) | melting point | Ratio of inhibition (%) [1, 2] | Ratio of inhibition (%) [1, 3] | solubility (Water solubility; Compound 1 upon conversion into monohydrochloride, read-out: dissolved in water (water solubility)) | solubility (Water solubility; read-out: water solubility) | Ratio of inhibition (%) of TNF α production (TNF α) | inhibitory activity on production of TNF α (in words) (TNF α; summary of Table 3)
1 | COc1ccc(C(=O)Nc2c(Cl)cncc2Cl)c2cc(C(=O)N3CCN(CCO)CC3)oc12 [Compound 2, 4-(3,5-Dichloro-4-pyridyl)carbamoyl-2-[4-(2-hydroxyethyl)-1-piperazinyl]carbonyl-7-methoxybenzofuran] | 0/5 | 164 to 165 °C | 72% | 22% | – | – | 65% | –
2 | COc1ccc(C(=O)Nc2c(Cl)cncc2Cl)c2cc(C(=O)c3ccccc3)oc12 [Compound Q, 2-benzoyl-4-(3,5-dichloro-4-pyridyl)carbamoyl-7-methoxybenzofuran, reference compound] | 0/5 | – | – | – | – | ≤ 1 µg/mL | 30% | high inhibitory activity
3 | COc1ccc(C(=O)Cc2c(Cl)cncc2Cl)c2cc(C(=O)N3CCN(CCO)CC3)oc12 [Compound 14, 4-[2-(3,5-Dichloro-4-pyridyl)-1-oxoethyl]-2-[4-(2-hydroxyethyl)-1-piperazinyl]carbonyl-7-methoxybenzofuran] | 0/5 | 155 to 156 °C | – | – | – | – | 65% | –

The next lines start with results.

Row | Number of animals with vomiting/Number of tested animals (Male Sunkus murinus) | melting point | Ratio of inhibition (%) [1, 2] | Ratio of inhibition (%) [1, 3] | solubility (Water solubility; Compound 1 upon conversion into monohydrochloride, read-out: dissolved in water (water solubility)) | solubility (Water solubility; read-out: water solubility) | SMILES | Ratio of inhibition (%) of TNF α production (TNF α) | inhibitory activity on production of TNF α (in words) (TNF α; summary of Table 3)
4 | 0/5 | 224 to 225 °C | 75% | 25% | 7.4 µg/mL (≈ 16 µM) | – | COc1ccc(C(=O)Nc2c(Cl)cncc2Cl)c2cc(C(=O)N3CCN(C)CC3)oc12 [Compound 1, 4-(3,5-Dichloro-4-pyridyl)carbamoyl-7-methoxy-2-(4-methyl-1-piperazinyl)carbonylbenzofuran] | 68% | –
5 | 0/5 | 160 to 161 °C | – | – | – | – | COc1ccc(C(=O)Cc2c(Cl)cncc2Cl)c2cc(C(=O)N3CCN(C)CC3)oc12 [Compound 13, 4-[2-(3,5-Dichloro-4-pyridyl)-1-oxoethyl]-2-(4-methyl-1-piperazinyl)carbonyl-7-methoxybenzofuran] | 65% | –
